Test results from patent US20020040052A1, “Method for neurite outgrowth” (priority 2000, published 2002).

Test system: PC12 cells derived from adrenal medulla pheochromocytoma of rats
Test: Neurite extension of PC12 cells: percentage of cells with extended neurites after culturing for 3 days
Type: cell-based, rat
Method: Next, PC12 cells derived from adrenal medulla pheochromocytoma of rats were seeded in a serum-free DMEM/F12 medium containing 5 μg/ml of transferrin, 5 μg/ml of insulin and 20 nM of progesterone (GIBCO Corp., hereinafter, referred to as “DMEM-TIP medium”) at 2.0×10^4 cells/well (flat-bottomed 24 well collagen coated plate, manufactured by IWAKI). Then, the cells were cultured overnight at 37° C. under 5% CO2. […]
After culturing for 3 days, for each well of the plate, microscopic observation was conducted with respect to the cells at 200 times magnification. The percentage of the cells with extended neurites (cells that have neurites longer than their diameter) to the total of more than 200 cells was calculated.

Row | SMILES | Ratio of the cells with extended neurites (10 μM in DMEM-TIP medium) [%] | Relative value of the ratio of the cells with extended neurites to control (Com. Ex. 1) (10 μM in DMEM-TIP medium) | Ratio of the cells with extended neurites (100 μM in DMEM-TIP medium) [%] | Relative value of the ratio of the cells with extended neurites to control (Com. Ex. 1) (100 μM in DMEM-TIP medium) | Ratio of the cells with extended neurites (50 μM in DMEM-TIP medium) [%] | Relative value of the ratio of the cells with extended neurites to control (Com. Ex. 1) (50 μM in DMEM-TIP medium)
1 | COc1ccc(-c2cc(=O)c3c(OC)c(OC)c(OC)c(OC)c3o2)cc1 [tangeretin] | 4.8 | 1.4 | 12.2 | 3.5 |  | 
2 | COc1ccc(-c2cc(=O)c3c(OC)c(OC)c(OC)c(OC)c3o2)cc1OC [nobiletin] | 8.7 | 2.5 | 42.8 | 12.2 | 16.6 | 4.7
